Measured values published in patent publication US12178907B2, “Binary lipid bilayer-containing vesicles comprising embedded cytotoxic agents and methods of making and using the same” (The USA, as represented by the Secretary, Department of …, priority 2018, dated 2024).

How the values were obtained:
[1] = Low-speed centrifugation to sediment unincorporated HPPH; assay type: physicochemical; conditions: 6,000 rpm, 20-30 minutes, HBS
Experimental: HPPH-loaded vesicles were placed in microcentrifuge tubes and centrifugations were carried out at 6,000 rpm (˜3000 RCF) for 30 minutes at 20-25° C. using a fixed-angle rotor centrifuge. Supernatants containing the vesicle-incorporated HPPH were collected, and any unincorporated HPPH, which aggregates in aqueous environment, was sedimented in the pellet fraction. A sample of an equivalent amount of free HPPH was suspended in HBS (without the lipids), and mixed by vortexing. The free HPPH aggregated in the buffer, which could be sedimented in the pelleted fraction upon centrifugation at low-speed as described above. This protocol presented a simple procedure to remove unincorporated HPPH from the vesicle-associated HPPH.
Free, unincorporated HPPH aggregates in aqueous buffer due to its insolubility, and can be pelleted upon sedimentation by low-speed centrifugation. Size exclusion chromatography (PD10 columns, GE Scientific) was used to separate unincorporated HPPH from the vesicles; however, in these embodiments, it was observed that sonication of HPPH dispersion in the HBS (in the absence of lipids) generated smaller HPPH aggregates that coeluted (in part) with vesicle-associated HPPH on the PD10 column. […] The HPPH suspended in HBS (in the absence of lipids) remained in suspension prior to centrifugation as determined by absorbance measurements. […]

[2] = cited from earlier work
[3] = 661 nm laser treatment (HPPH photodamage); assay type: physicochemical; conditions: five minutes
Experimental: 661 nm Laser Treatment of Vesicle20-HPPH: Vesicle20-HPPH (containing 50-100 μg lipid & 2.5-5 μg HPPH) were placed in a microcentrifuge tube and irradiated horizontally in a box fitted with a diode laser cube at room temperature. Irradiation was done for five minutes using the 661 nm laser (Coherent Cube Part Number 1130061) at a power output of 90 mW (125 mW/cm^2, as measured by the Thorlabs PM200 Energy Meter with the S121C Photodiode Power Sensor). Free HPPH dispersed in Tween 80 (Tween 80-HPPH) (4) and DPPC:DC8,9PC:DSPEG2000 vesicles (Table 1B) were used as controls to compare the extents of photodamage.
The efficiency of photoactivation by HPPH upon laser exposure depends on its environment and aggregation state. Laser treatment of HPPH results in photodamage and serves as an indication of its activity. Therefore, the photodamage of vesicle-formulated HPPH was compared with Tween 80-HPPH and a formulation comprising DPPC and a lower concentration of DSPE-PEG2000 (see Table 2). The extent of photodamage was tested using Vesicle10-HPPH containing 1:0.05 Lipid:HPPH ratios (Table 2) upon treatment with 661 nm laser for five minutes.

HPPH sedimented into the pelleted fraction [1]: nearly complete sedimentation
Compound: CCCCCCOC(C)c1c(C)c2cc3nc(c4c5[nH]c(cc6nc(cc1[nH]2)C(C)=C6CC)c(C)c5C(=O)C4)[C@@H](CCC(=O)O)[C@@H]3C (stereo partly shown) [HPPH, 2-[1-hexyloxyethyl]-2-devinyl pyropheophorbide-a]
molar extinction ε ([2]; at 665 nm): 47,500 M^−1 cm^−1
log P ([2]; physiological pH): 5.6
extent of photodamage (HPPH fluorescence remaining after laser) [3]: did not result in a decrease in fluorescence
